Values quoted from earlier work as cited in US6258550A, “Polypeptides that include conformation-constraining groups which flank a protein-protein interaction site” (Virginia Commonwealth University, priority 1999, dated 2001).
Where a SMILES comes first, the peptide text is derived from it.

Tested on: receptors of sweet tasting papillae
Settings: comparison sweetener

COC(=O)[C@H](Cc1ccccc1)NC(=O)[C@@H](N)CC(=O)O [aspartame] (H-Asp-Phe-OMe)
Sweetness relative to sugar: 160 times sweeter than sugar
